Laboratory results published in ChEMBL document CHEMBL1147830, “Isoquinoline-pyridine-based protein kinase B/Akt antagonists: SAR and in vivo antitumor activity” (Bioorg Med Chem Lett, 2006).

How the values were obtained:
Casein kinase II = Casein kinase II (Homo sapiens, UniProt P19784+P67870+P68400); assay: Inhibition of CK2 at 5 uM ATP; format: protein-complex assay
[1] = molecular target: Mitogen-activated protein kinase 1 (Homo sapiens, UniProt P28482); assay: Inhibition of ERK2 at 5 uM ATP
Chain of Mitogen-activated protein kinase 1 (P28482 whole entry): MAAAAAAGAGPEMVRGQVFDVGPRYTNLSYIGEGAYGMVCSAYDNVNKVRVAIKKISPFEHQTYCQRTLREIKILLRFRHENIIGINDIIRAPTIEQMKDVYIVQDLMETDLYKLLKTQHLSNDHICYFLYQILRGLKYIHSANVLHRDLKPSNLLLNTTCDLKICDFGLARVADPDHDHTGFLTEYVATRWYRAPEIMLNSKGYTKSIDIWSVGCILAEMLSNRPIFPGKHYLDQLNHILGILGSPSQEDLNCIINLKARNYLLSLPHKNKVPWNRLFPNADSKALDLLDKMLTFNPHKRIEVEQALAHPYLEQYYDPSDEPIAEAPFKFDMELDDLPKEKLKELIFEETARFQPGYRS

[2] = molecular target: RAC-beta serine/threonine-protein kinase (Homo sapiens, UniProt P31751); assay: Inhibition of Akt2 at 5 uM ATP
Chain of RAC-beta serine/threonine-protein kinase (P31751 whole entry): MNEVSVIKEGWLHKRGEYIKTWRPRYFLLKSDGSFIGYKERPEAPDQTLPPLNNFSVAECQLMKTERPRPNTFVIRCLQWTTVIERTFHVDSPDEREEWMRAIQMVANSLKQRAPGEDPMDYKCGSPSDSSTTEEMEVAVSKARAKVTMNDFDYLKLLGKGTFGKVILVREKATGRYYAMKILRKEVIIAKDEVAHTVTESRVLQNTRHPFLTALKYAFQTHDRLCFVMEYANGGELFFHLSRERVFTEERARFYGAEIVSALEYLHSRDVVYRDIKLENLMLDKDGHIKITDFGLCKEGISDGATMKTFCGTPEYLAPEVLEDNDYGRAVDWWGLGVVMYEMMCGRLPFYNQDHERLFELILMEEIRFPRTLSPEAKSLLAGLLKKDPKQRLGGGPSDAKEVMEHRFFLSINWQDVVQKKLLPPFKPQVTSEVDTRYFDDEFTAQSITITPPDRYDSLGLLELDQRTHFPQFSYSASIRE

[3] = molecular target: Protein kinase C gamma type (Homo sapiens, UniProt P05129); assay: Inhibition of PKC gamma at 5 uM ATP
MIA PaCa-2 = assay: Antiproliferative activity against human MiaPaCa2 cells by MTT assay; format: functional, cell-based
[4] = molecular target: Cyclin-dependent kinase 1 (Homo sapiens, UniProt P06493); assay: Inhibition of CDK1 at 5 uM ATP
Chain of Cyclin-dependent kinase 1 (P06493 whole entry): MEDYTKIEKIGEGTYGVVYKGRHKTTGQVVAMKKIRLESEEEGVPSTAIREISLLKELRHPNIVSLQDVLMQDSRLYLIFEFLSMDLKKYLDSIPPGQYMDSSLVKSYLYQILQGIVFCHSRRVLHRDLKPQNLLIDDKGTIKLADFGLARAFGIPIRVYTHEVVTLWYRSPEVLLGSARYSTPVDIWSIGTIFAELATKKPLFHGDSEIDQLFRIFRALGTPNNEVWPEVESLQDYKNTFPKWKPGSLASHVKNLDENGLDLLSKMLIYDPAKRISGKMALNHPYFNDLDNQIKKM

[5] = molecular target: T1, Protein kinase C epsilon type (Homo sapiens, UniProt Q02156); assay: Inhibition of PKC epsilon at 5 uM ATP
T1 sequence (Q02156 whole entry): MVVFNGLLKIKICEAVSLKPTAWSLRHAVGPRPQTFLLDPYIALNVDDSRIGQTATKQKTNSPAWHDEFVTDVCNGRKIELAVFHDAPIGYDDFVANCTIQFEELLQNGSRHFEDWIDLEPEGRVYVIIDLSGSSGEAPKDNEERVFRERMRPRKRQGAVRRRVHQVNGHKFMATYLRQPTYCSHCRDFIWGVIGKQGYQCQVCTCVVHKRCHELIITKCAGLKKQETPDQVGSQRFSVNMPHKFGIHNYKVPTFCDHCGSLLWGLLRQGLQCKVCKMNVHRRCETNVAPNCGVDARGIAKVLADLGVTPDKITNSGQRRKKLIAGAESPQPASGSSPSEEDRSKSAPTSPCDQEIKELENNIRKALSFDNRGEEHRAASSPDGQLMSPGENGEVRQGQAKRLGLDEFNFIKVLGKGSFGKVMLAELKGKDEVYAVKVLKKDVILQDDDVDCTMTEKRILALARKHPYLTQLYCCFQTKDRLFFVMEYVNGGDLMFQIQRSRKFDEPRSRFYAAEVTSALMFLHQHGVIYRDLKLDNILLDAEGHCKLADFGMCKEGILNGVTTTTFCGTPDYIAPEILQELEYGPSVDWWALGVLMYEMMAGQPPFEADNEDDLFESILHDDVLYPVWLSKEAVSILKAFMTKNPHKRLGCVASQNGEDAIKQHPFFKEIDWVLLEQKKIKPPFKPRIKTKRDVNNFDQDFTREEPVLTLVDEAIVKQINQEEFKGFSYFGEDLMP

[6] = molecular target: cAMP-dependent protein kinase (PKA) (Homo sapiens, UniProt P22694+P17612+P22612); assay: Inhibition of PKA at 5 uM ATP; format: protein assay
[7] = molecular target: RAC-gamma serine/threonine-protein kinase (Homo sapiens, UniProt Q9Y243); assay: Inhibition of Akt3 at 5 uM ATP
Chain of RAC-gamma serine/threonine-protein kinase (Q9Y243 whole entry): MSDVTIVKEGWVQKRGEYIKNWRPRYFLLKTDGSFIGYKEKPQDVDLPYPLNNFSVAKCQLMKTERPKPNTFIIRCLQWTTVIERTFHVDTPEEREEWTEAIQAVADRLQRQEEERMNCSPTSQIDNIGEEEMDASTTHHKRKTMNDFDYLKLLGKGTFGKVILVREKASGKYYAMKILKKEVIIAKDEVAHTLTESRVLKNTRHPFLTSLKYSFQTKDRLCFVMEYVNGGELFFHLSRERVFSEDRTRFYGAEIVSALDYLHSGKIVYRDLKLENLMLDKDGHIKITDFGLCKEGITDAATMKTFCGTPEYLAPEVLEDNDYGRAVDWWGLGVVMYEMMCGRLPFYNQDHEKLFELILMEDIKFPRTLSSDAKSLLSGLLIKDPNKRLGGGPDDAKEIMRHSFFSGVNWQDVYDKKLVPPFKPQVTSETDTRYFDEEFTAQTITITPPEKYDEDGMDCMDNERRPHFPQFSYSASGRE

[8] = molecular target: Proto-oncogene tyrosine-protein kinase Src (Homo sapiens, UniProt P12931); assay: Inhibition of SRC at 5 uM ATP
Chain of Proto-oncogene tyrosine-protein kinase Src (P12931 2-536 limits assumed): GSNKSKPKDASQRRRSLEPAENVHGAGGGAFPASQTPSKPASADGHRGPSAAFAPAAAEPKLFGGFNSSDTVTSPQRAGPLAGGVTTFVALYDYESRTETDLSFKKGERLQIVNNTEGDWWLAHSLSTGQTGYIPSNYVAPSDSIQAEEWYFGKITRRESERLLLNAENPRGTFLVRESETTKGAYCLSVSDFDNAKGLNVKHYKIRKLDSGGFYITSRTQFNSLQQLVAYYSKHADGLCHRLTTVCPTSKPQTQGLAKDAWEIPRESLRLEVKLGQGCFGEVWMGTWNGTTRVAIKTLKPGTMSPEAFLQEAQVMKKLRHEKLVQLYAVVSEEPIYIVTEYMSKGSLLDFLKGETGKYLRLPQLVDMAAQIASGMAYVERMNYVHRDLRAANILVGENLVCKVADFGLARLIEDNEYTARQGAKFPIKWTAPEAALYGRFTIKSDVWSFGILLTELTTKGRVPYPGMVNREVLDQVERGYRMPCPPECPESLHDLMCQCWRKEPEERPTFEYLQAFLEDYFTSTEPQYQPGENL

[9] = AUC in CD1 mouse at 10 mg/kg, po; format: ADME, organism-based; set-up: dose 10 mg/kg, route oral; conditions: plasma
[10] = Clearance in CD1 mouse at 3 mg/kg, iv or 10 mg/kg, po or 30 mg, sc; format: ADME, organism-based; set-up: unit not given here; conditions: in vivo
[11] = Half life in CD1 mouse at 3 mg/kg, iv; format: ADME, organism-based; set-up: dose 3 mg/kg, route intravenous; conditions: in vivo
[12] = Volume of distribution in CD1 mouse at 3 mg/kg, iv or 10 mg/kg, po or 30 mg, sc; format: ADME, organism-based; conditions: in vivo, read-out: Vdss
[13] = Bioavailability in CD1 mouse at 10 mg/kg, po; format: ADME, organism-based; conditions: in vivo
[14] = Antiproliferative activity against mouse FL5.12 cells overexpressing Akt1 by MTT assay
[15] = molecular target: RAC-alpha serine/threonine-protein kinase (Homo sapiens, UniProt P31749); assay: Inhibition of GSK3 phosphorylation; format: functional
Chain of RAC-alpha serine/threonine-protein kinase (P31749 whole entry): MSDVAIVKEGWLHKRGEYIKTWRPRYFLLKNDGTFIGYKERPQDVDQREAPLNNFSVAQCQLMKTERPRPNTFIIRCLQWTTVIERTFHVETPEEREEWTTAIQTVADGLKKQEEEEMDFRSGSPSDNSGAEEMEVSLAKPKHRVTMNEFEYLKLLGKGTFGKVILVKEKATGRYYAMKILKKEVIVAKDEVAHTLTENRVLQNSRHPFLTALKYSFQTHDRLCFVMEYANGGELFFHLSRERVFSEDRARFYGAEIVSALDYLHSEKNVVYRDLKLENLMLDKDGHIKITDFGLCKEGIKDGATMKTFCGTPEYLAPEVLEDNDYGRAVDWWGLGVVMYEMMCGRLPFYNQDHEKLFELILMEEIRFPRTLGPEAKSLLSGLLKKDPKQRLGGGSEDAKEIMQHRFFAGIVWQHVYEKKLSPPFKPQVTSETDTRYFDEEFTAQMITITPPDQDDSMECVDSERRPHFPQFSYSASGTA

[16] = AUC in CD1 mouse at 30 mg, sc; format: ADME, organism-based; conditions: plasma

Chain of Casein kinase II (P67870 whole entry): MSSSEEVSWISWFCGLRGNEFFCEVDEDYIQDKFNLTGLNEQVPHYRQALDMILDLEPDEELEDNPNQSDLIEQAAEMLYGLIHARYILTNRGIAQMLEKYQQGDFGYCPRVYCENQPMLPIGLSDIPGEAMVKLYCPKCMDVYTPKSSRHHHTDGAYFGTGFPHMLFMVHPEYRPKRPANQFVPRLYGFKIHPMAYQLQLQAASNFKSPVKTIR
Chain of Casein kinase II (P68400 whole entry): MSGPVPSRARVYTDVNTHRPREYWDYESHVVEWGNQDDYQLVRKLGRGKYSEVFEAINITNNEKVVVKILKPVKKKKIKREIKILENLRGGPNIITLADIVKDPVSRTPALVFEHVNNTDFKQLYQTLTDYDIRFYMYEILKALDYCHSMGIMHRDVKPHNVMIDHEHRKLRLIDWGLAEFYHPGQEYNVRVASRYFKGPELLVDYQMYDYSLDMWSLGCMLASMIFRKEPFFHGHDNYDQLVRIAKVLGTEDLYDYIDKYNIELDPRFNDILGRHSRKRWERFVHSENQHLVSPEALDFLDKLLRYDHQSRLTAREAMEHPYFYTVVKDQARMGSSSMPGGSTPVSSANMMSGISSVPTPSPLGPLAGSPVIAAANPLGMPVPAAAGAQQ
Chain of Casein kinase II (P19784 whole entry): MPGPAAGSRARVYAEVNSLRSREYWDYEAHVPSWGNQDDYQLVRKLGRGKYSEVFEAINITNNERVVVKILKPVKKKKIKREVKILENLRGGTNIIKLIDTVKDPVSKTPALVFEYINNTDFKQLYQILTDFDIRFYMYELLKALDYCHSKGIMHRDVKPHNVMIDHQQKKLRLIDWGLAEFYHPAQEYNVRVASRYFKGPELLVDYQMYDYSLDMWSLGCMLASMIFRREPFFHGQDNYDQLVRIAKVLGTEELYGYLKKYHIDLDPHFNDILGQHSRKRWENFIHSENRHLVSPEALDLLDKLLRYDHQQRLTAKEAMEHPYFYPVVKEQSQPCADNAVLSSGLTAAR

Row | Structure (SMILES) | IC50 (Casein kinase II) | IC50 [1] | IC50 [2] | IC50 [3] | IC50 (MIA PaCa-2) | IC50 [4] | IC50 [5] | IC50 [6] | IC50 [7] | IC50 [8] | AUC [9] | clearance [10] | half-life [11] | Vd [12] | bioavailability [13] | IC50 [14] | IC50 [15] | AUC [16]
1 | C#Cc1ncc(OC[C@@H](N)Cc2c[nH]c3ccccc23)cc1-c1ccc2cnccc2c1 | > 50000 nM | 27200 nM | 5 nM | 260 nM | 10800 nM | 4900 nM | 8900 nM | 1 nM | 39 nM | > 50000 nM |  |  |  |  |  |  |  | 
2 | N[C@H](COc1cncc(-c2ccc3cnc(Cl)cc3c2)c1)Cc1c[nH]c2ccccc12 |  |  |  |  |  |  |  |  |  |  | 910 ng·h/mL | 90 | 2 h | 15.5 L/kg | 27% |  |  | 
3 | N[C@H](COc1cncc(-c2ccc3cnccc3c2)c1)Cc1c[nH]c2ccccc12 |  |  |  |  |  |  | 6100 nM |  |  | 2000 nM |  |  | 0.3 h | 7 L/kg | 0% | 420 nM | 1500 nM | 7600 ng·h/mL
4 | N[C@H](COc1cncc(-c2ccc3c(Cl)nccc3c2)c1)Cc1c[nH]c2ccccc12 |  |  |  |  |  |  |  |  |  |  | 3900 ng·h/mL | 21.7 | 5 h | 9.5 L/kg | 51% |  |  | 
5 | Cc1cc(-c2cncc(OC[C@@H](N)Cc3c[nH]c4ccccc34)c2)cc2ccncc12 |  |  |  |  |  |  |  |  |  |  | 1500 ng·h/mL | 41.7 | 4.5 h | 16.4 L/kg | 35% |  |  | 
6 | Nc1cc2cc(-c3cncc(OC[C@@H](N)Cc4c[nH]c5ccccc45)c3)ccc2cn1 | 620 nM | 1200 nM | 21 nM | 31 nM | 100 nM | 22 nM | 8300 nM | 8 nM | 76 nM | 480 nM |  | 202 | 0.7 h | 11.8 L/kg | 0% |  | 930 nM | 6900 ng·h/mL
7 | N[C@H](COc1cncc(-c2ccc3cnc(F)cc3c2)c1)Cc1c[nH]c2ccccc12 |  |  |  |  | 3180 nM | 3400 nM |  | 48 nM |  | 18000 nM |  |  |  |  |  |  |  | 
8 | N[C@H](COc1cnc(Cl)c(-c2ccc3cnccc3c2)c1)Cc1c[nH]c2ccccc12 | 12700 nM | 37000 nM | 5 nM | 540 nM | 13300 nM | 870 nM | > 5000 nM | 5 nM | 73 nM | 12100 nM |  |  |  |  |  |  | 3000 nM | 
